The test system of one experiment is human mast cells. The experiment can be described thus: Calcium flux assay in antigen-stimulated human mast cells. The conditions noted are these: 2 hours treatment, NP-BSA stimulation. It counts as cell-based. Here is the method:
Human mast cells were derived from bone marrow CD34+ cells from six healthy donors for up to eight weeks by culturing CD34+ cells in StemSpan SFEM II (Stem Cell Technologies) supplemented with stem cell factor (SCF; 100 ng/mL; R&D System), IL-6 (R&D Systems), IL-3 (R&D Systems) and 1% penicillin/streptomycin (P/S; Gibco) for the first 10 days and in StemSpan SFEM II supplemented with SCF and IL-6 and 1% P/S for the remaining time in culture. […] Supernatant was collected and histamine levels were measured using a Histamine ELISA kit (Eagle Biosciences). […] Percent of activated mast cells was calculated as number of activated mast cells over the total number of mast cells.
Compound 128 Inhibits Calcium Signaling in Human Mast Cells. […] The median fluorescence intensity of cytosolic calcium was measured across the stimulation time period and graphed to represent the calcium influx profile. The area under the curve (AUC) of the calcium influx profile was calculated and normalized as a percent of stimulated control. […]

In a further experiment the test system is basophils. The experiment can be described thus: Anti-IgE induced IL-4 production from basophils in whole blood. It counts as cell-based, human. Particulars: whole blood from a healthy donor, two hours treatment, anti-IgE six hours. Here is the method: Human mast cells lines, ROSA with wildtype KIT and ROSA […] with D816V KIT mutation (ISM-like cells), were licensed from CRNS Innovation and cultured with or without stem cell factor (100 ng/ml), respectively (FIG. 12A). ROSA cells were stimulated with IL-4 (20 ng/ml; R&D Systems) for 18 hours, stained for FcεRIα (Becton Dickinson) for 30 minutes on ice, washed twice with FACS buffer and data was acquired on a flow cytometer. The median fluorescence intensity of FcεRIα was measured. […] Whole blood from a healthy donor was treated with Compound 128 for two hours and the basophils were stimulated with anti-IgE (1 μg/mL; Beckman Coulter) for six hours (FIG. 12B). Plasma was collected and IL-4 levels were measured using the BD CBA human soluble protein master buffer kit and BD CBA human soluble protein flex set for IL-4 (Becton Dickinson). A four-parameter logistic regression analysis was performed on the cytokine levels to determine the EC50 and EC90. […] Therefore, Compound 128 may indirectly effect FcεRI expression by the reduction of IL-4 levels.

The target in a further experiment is BTK (Homo sapiens, UniProt Q06187). Nature of the experiment: Phospho-BTK (pBTK) test in basophils, whole blood. Type of experiment: cell-based. The conditions noted are these: 24 hours exposure, CCR3+ basophils, anti-FcεR stimulation; read-out: average EC50 (n=4), pBTK (Y223) normalized to DMSO control. Details: Human mast cells were differentiated from bone marrow CD34+ cells from six healthy donors; endogenous in cells; host or cells: human mast cells differentiated from bone marrow CD34+ cells of healthy donors, cultured with SCF. Here is the method:
Blood from four healthy donors was drawn and Compound 128 was added at various concentrations (10 µM, 3.16 μM, 1 μM, 0.3 μM, 0.1 μM, 0.03 μM, or 0 μM). Blood samples were gently rocked at room temperature for 24 hours. The pBTK test was then conducted by (1) stimulating the blood with anti-FcεR stimulation control from Flow Cast Basophil Activation Kit and staining cells for CCR3 (Becton Dickinson) and a near-IR dead cell stain (nIR; Invitrogen) for 15 minutes at 37° C., (2) lysing red blood cells and fixing cells with Phosflow Lyse/Fix Buffer (Becton Dickinson) at 37° C. for 10 minutes, (3) washing once with 1× phosphate-buffered saline (PBS), (4) washing twice with Perm/Wash buffer (Becton Dickinson), (5) permeabilizing cells with Perm/Wash buffer on ice for 15 minutes, (6) staining cells for rabbit anti-human pBTK (Abcam) for 30 minutes on ice, (7) washing twice with Perm/Wash buffer, (8) staining with goat anti-rabbit secondary antibody (Invitrogen) for 30 minutes on ice, (9) washing twice with Perm/Wash buffer, and (10) acquiring data on a flow cytometer. Live basophils were defined as nIR−, CCR3+ and low side scatter. The median fluorescence intensity of phosphorylated BTK was measured and percent of stimulated control was calculated. […] The percent of stimulated control of activated mast cells (CD63+) was calculated. […]

Experiment [1] relates to healthy mast cells and ISM mast cells. Nature of the experiment: Potency across healthy mast cells and ISM mast cells (FIG. 16). It counts as cell-based, human. Particulars: presence of SCF, NP-IgE sensitization, NP-BSA stimulation. Here is the method: Healthy BM-MC donor 0166 and ISM WB-MC 1061-004 17 Jan. 2024 and 17 Oct. 2024. Experiments performed in the presence of SCF. Sensitization and Stimulation: NP-IgE (100 ng/ml) 18 hrs, NP-BSA (0.5 ng/ml) for 15 min at 37° C. (CD63, CD203, pBTK and histamine) or 4 min at RT (Calcium Flux).

Sequence of BTK (Q06187 whole entry): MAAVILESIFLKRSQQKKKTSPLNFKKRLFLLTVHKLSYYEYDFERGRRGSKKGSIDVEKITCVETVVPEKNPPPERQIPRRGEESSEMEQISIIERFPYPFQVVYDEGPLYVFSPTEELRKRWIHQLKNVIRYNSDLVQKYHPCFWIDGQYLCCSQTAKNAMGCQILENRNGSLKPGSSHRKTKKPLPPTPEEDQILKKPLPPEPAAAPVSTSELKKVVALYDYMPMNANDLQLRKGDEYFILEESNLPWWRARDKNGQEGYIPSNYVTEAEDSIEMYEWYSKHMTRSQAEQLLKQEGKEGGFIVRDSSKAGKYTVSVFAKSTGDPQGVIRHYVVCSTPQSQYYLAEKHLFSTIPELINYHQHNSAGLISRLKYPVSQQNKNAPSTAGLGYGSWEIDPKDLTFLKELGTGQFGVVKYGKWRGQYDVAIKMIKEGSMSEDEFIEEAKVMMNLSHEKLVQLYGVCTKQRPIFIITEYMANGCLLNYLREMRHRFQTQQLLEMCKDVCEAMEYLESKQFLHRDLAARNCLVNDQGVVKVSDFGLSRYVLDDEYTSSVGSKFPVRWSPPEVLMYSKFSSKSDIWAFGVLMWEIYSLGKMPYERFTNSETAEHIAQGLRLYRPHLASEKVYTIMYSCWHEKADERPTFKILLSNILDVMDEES

Broadly, the EC50 is the concentration that produces a half-maximal response. In the case of `C=CC(=O)N1CCC(F)(CNc2ncnc(N)c2-c2ccc(Oc3ccccc3)cc2)CC1` [Compound 128, 1-(4-(((6-amino-5-(4-phenoxyphenyl)pyrimidin-4-yl)amino)methyl)-4-fluoropiperidin-1-yl)prop-2-en-1-one], the entries for the “calcium influx, percent of stimulated control” value with human mast cells (ISM-like (+SCF) mast cells) and with human mast cells (healthy (−SCF) mast cells) were “less than 7%” and < 3%, respectively. In the experiment on basophils, the “IgE-mediated IL-4 production” value is “potently inhibited”. The EC50 on BTK came out at 130 nM. Also, the “potency in healthy versus ISM mast cells (CD63, CD203, pBTK, histamine, calcium flux)” value in experiment [1] is on record as “equipotent”.
